The results in this text go back to US20240208953A1, “"Cyclopenta[c]pyrrol Negative Allosteric Modulators of NR2B"” (Novartis AG, priority 2021, published 2024).

SMILES strings stand for the structures.

For one series, the target named is hERG (Homo sapiens (Human), UniProt Q12809). Kind of series: hERG Qpatch assay. Format: cell-based. As for the experimental part:
Example 3. hERG Qpatch Assay Protocol
This assay was performed by the method described in Skepper et al., J. Med. Chem. 2020, 63, 7773-7816:
hERG expressing cell lines were produced in-house at Novartis using CHO-K1 T-Rex inducible plasmid system (Invitrogen) as described previously (Cao et al., Assay Drug Dev. Technol. 2010, 8, 766-780). Cell lines were maintained in Ham's F12 nutrient mixture containing 10% FBS, blasticidin ([…]; InvivoGen), hygromycin B ([…]; InvivoGen), Zeocin ([…], Invitrogen), and neomycin ([…], Invitrogen) using SelecT automated cell culture system (TAP Biosystems, Cambridge, U.K.). hERG and hCav1.2 channels expression was induced with tetracycline (0.25-1 μg/mL, Invitrogen) at least 24 h prior to the experiment.
hERG currents were recorded using the Qpatch automated patch clamp systems (Sophion Bioscience Inc., North Brunswick, NJ) in the whole (single) cell configuration. hERG expressing CHO-K1 cells were harvested with Detachin (Genlantis) and stored in the modified serum-free SFM-2 media (Life Technologies) at room temperature. The extracellular solution contained (in mM) NaCl (145), KCl (4), MgCl2 (1), CaCl2 (2), and HEPES (10), pH 7.4, with NaOH. The intracellular solution contained KCl (135), MgCl2 (1.75), CaCl2 (5.4), EGTA (10), K2-ATP (4), and HEPES (10), pH 7.2, with KOH. After whole cell configuration was achieved, the cell was held at −90 mV, and a 0.1 s pulse to −50 mV was delivered to measure the leaking current, which was subtracted from the tail current online. Then the cell was depolarized to +20 mV for 4 s (prepulse), followed by a 4 s test pulse to −50 mV to reveal the hERG tail current. To monitor changes in the current amplitude, this voltage protocol was repeatedly applied every 20 s. Test compounds were first diluted in DMSO for six dose-response experiments and then dissolved in the extracellular solution using Freedom EVO liquid handling robotic system (Tecan, Männedorf, Switzerland). The final DMSO concentration in samples was 0.3% v/v. Amitriptyline (Sigma) was tested as a positive control. Data were analyzed using in-house developed MatLab-based program (MathWorks, Natick, MA

Another series addresses P-glycoprotein (P-gp) (Homo sapiens (Human), UniProt P08183). The experiment in a line: MDCK-MDR1 permeability / efflux assay. As to conditions: for efflux ratio at 120 min, 10 μM: dog, MDCK-MDR1, pH 7.4, efflux ratio, read-out: MDCK-MDR1 ER. Format: in vitro ADME. As for the experimental part: Example 4. Experimental Measurement of Efflux with MDCK-MDR1 Protocol
Cell Culture. MDCK-MDR1 cells were cultured at 37° C. under a 5% CO2 atmosphere, at 95% relative humidity in DMEM containing 10% FBS, penicillin-streptomycin (100 μg/mL), and 2 mM Ala-Gln. Cells were passaged every 3-4 days. For assay purposes, cells were seeded at a density of approximately 265,000 cells/cm^2 of a 96-well Transwell plate (Corning Life Sciences, Acton, MA) and cultured in the same media noted above for a period of 4 days.
Assay. The determination of the apparent permeability (Papp) was performed in both the A→B (apical to basal) and B→A (basal to apical) directions where each compound was assayed in triplicate. The zwitterion bestatin, a poorly permeably compound, was used as marker of monolayer integrity. To initiate the assay, media was aspirated, and the cells and basal chambers were washed three times with Hank's Balanced Salt Solution (HBSS) containing 10 mM HEPES (pH 7.4). Compound test solutions were prepared in triplicate in HBSS containing 10 mM HEPES (pH 7.4) and 0.02% bovine serum albumin (BSA) to a final concentration of 10 μM and centrifuged for 2 min at 4000×g, then applied to the donor compartment at time zero. Additionally, at time zero, a 37° C. solution without test articles (HBSS+10 mM HEPES (pH 7.4) plus 0.02% BSA) was added to the receiver chamber of the Transwell plate. A time zero sample of the donor solution was also sampled for further analysis. The assay was conducted for a period of 120 min at 37° C. without shaking. At the time of assay termination, samples were taken from each donor compartment, and each acceptor compartment of the Transwell plate. To each of the 0 and 120 min samples was added an internal standard solution containing glyburide in water:acetonitrile, 50:50 (v:v). Concentration curves were prepared using a Labcyte Echo in the same matrix noted above. Samples and concentration curve samples were centrifuged for 10 min at 4000×g and subsequently analyzed by mass spectroscopy.
Mass Spectroscopy. Assay samples were loaded onto a RapidFire C4 cartridge by means of a RapidFire autosampler (Agilent, Santa Clara, CA). […] Mass spectroscopy was performed using an AB Sciex AP15500 (Sciex, Frammingham, MA) equipped with a turbo ion spray source. The analyte concentration was calculated from the chromatographic peak area ratio of analyte to internal standard (glibenclamide, m/z 494→169), using Multiquant software V3.0 (Sciex, Framingham, MA).
Calculations. Papp values were determined as
Percent recovery values were determined as:
where VA is the volume of the acceptor (mL), S is the surface area of the membrane, D0 is the donor solution concentration at t=0, D120 is the donor solution concentration at t=120, A120 is the acceptor solution concentration at t=120, and t=time (seconds).
The suitability of a compound for oral dosing and/or for use as a CNS therapeutic is usually conducted by MDCK-MDR1 permeability assay to investigate its drug efflux potential mediated by P-glycoprotein (P-gp). MDCK-MDR1 permeability has been used as a predictor of blood brain barrier permeability in terms of efflux ratio (ER).

The next series has as its target NR2B (Rattus norvegicus (Rat), UniProt Q00960). Kind of series: NR2B rat cortical neuron calcium influx assay. As to conditions: for IC50: rat cortical neurons, glutamate and glycine stimulated calcium influx; for relative potency in the NR2B rat cortical neuron calcium influx assay: comparison within Examples 5A/5B/5C/5D. The format is cell-based. Put shortly: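 Primary cortical neurons from E18 Sprague Dawley rat embryos, cultured 2 days, were loaded with Calcium 6 dye in 1.8 mM Ca-HBSS and preincubated with compound 2 h at 37° C. Glutamate plus glycine was added and fluorescence read for 2 min as peak/baseline ratio; duplicate dose-response curves gave IC50 (μM) and maximal inhibition.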

Where [1] appears, read: Table 2, hERG expressing CHO-K1 cells.

Chain of P-glycoprotein (P-gp) (P08183 whole entry): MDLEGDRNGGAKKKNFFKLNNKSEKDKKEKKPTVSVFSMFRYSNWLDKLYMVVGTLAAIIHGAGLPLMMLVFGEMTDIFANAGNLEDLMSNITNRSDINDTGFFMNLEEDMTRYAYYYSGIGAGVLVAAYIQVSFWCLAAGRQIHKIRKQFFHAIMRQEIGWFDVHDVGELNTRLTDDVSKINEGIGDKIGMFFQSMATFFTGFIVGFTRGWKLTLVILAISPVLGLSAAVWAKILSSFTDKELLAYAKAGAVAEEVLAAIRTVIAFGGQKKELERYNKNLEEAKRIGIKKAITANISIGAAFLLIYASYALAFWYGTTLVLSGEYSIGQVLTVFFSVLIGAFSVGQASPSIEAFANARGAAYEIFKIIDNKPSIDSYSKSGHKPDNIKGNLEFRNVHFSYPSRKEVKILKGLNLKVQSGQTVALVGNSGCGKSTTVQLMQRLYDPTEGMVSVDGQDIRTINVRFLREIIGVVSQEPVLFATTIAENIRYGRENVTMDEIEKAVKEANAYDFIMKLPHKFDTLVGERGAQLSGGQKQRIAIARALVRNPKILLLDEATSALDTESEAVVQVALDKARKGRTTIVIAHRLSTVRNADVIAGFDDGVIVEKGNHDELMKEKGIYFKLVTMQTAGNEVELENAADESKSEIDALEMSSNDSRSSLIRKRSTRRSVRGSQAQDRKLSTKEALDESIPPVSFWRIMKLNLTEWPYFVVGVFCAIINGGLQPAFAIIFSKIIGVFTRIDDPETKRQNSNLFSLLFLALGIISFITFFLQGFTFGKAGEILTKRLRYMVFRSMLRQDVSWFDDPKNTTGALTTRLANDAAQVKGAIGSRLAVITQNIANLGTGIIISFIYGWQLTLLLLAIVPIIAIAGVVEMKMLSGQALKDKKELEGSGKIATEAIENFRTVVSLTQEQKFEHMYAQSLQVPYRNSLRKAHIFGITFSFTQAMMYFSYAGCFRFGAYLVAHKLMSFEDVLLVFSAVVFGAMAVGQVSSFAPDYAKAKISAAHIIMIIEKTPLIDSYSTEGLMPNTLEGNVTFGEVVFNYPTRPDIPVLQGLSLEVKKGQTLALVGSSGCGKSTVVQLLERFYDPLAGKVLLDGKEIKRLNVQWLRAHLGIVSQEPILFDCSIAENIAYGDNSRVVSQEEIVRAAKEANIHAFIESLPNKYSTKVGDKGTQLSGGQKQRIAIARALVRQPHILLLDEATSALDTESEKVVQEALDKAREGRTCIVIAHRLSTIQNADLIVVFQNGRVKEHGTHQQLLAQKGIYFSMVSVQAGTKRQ
Chain of NR2B (Q00960 27-1482, other chains not shown): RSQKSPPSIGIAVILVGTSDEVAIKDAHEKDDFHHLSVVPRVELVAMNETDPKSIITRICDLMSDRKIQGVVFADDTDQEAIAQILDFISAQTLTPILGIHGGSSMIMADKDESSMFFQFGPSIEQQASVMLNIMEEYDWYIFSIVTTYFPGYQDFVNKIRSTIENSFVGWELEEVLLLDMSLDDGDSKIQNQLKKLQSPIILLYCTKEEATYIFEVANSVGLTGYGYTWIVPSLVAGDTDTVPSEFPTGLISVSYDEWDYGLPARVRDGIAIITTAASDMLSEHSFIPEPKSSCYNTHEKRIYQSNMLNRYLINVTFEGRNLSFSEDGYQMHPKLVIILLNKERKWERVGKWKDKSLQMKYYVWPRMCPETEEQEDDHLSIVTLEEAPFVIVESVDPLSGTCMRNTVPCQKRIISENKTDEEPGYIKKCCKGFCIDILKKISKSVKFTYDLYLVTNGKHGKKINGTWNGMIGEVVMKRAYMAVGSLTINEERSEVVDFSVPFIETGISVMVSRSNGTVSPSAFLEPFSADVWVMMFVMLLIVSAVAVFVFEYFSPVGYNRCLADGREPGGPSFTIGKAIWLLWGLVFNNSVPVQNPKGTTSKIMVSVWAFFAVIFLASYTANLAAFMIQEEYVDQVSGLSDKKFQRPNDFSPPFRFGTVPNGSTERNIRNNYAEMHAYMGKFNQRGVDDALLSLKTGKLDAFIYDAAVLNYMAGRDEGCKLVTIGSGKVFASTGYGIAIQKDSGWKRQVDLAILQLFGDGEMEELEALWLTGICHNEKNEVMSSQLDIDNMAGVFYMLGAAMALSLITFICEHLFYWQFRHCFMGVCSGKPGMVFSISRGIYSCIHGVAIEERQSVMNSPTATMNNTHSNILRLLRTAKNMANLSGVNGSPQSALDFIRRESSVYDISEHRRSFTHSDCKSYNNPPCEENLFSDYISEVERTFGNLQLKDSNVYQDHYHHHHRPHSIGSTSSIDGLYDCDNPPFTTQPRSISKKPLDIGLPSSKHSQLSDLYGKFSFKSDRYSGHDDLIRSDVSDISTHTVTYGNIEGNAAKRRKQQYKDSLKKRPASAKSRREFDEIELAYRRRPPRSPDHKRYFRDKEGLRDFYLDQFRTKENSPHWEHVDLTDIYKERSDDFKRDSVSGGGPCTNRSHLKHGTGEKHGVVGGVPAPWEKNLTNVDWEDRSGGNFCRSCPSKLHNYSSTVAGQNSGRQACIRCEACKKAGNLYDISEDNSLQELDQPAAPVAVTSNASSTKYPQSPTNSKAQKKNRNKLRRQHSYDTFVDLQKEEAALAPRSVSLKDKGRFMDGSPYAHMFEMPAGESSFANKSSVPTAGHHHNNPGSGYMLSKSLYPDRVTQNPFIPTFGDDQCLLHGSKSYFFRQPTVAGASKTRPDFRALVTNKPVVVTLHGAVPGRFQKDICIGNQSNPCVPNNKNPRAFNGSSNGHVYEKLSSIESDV
Chain of hERG (Q12809 whole entry): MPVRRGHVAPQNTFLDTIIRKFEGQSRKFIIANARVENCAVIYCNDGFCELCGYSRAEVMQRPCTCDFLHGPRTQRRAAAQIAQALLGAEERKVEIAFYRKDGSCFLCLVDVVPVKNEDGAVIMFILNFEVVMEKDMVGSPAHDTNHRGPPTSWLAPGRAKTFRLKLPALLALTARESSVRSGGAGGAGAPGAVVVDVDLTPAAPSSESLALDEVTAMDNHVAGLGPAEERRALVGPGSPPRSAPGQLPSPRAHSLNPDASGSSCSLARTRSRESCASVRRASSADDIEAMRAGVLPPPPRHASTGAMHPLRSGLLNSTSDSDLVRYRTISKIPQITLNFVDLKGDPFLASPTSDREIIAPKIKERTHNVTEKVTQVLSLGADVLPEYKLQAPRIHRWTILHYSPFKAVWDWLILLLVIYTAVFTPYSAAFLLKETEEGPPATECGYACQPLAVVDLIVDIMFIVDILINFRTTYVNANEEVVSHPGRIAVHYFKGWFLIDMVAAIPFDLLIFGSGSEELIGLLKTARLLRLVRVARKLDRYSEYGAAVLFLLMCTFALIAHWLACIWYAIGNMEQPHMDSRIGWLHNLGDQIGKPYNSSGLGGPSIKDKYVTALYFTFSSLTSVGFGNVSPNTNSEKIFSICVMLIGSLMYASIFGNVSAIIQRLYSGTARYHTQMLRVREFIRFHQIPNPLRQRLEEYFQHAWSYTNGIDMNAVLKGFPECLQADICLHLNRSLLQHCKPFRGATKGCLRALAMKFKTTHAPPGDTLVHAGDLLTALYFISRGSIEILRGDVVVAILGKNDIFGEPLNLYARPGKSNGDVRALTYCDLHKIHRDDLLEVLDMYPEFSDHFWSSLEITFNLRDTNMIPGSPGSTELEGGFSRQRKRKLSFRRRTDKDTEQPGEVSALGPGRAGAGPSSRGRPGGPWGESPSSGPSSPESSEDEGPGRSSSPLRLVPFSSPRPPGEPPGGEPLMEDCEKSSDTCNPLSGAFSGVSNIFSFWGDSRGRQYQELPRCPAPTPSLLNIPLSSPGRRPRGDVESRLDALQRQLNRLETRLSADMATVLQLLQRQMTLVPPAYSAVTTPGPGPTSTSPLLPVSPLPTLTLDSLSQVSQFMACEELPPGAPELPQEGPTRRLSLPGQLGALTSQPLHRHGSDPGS

As for `O=C1CCCc2cc([C@H](O)CN3C[C@H]4C[C@H](Oc5ccccc5)C[C@@]4(O)C3)ccc2N1` (single isomer, unassigned) [Example 7B], the 50% inhibitory concentration (IC50) (as a rule, the midpoint of a concentration-inhibition curve) against hERG (setting [1]) is 15.2 µM; on NR2B, 1.9 nM. Also, the efflux ratio at 120 min, 10 μM on P-glycoprotein (P-gp) turned out to be 2.07.

As to `O=C1CCc2cc([C@@H](O)CN3C[C@@H]4C[C@@H](Oc5cccc(F)c5F)C[C@]4(O)C3)ccc2N1` (single isomer, unassigned) [Example 24C], the IC50 on hERG (setting [1]) was 1.2 µM; on NR2B, 0.021 nM. At P-glycoprotein (P-gp), the efflux ratio at 120 min, 10 μM was 1.46.

Regarding `O=C1Nc2cc(F)c([C@@H](O)CN3C[C@H]4C[C@H](Oc5ccccc5)C[C@@]4(O)C3)cc2CO1` (single isomer, unassigned) [Example 36A], the IC50 on hERG (setting [1]) was found to be 5.5 µM; on NR2B, 0.49 nM. For the same molecule, the efflux ratio at 120 min, 10 μM on P-glycoprotein (P-gp) was determined as 4.04.

`O[C@H](CN1C[C@H]2C[C@H](Oc3ccccc3F)[C@H](O)[C@@]2(O)C1)c1cnc2[nH]ccc2c1` (single isomer, unassigned) [Example 44B]: the IC50 against hERG (setting [1]) is 15.7 µM; on NR2B, 1190 nM. Besides, the efflux ratio at 120 min, 10 μM on P-glycoprotein (P-gp) was 7.34.

As for `O=C1Nc2ccc([C@H](O)CN3C[C@H]4C[C@H](Oc5ccccc5)C[C@@]4(O)C3)cc2CS1` (single isomer, unassigned) [Example 14B], the half-maximal inhibitory concentration (IC50) at hERG (setting [1]) was 1.3 µM; on NR2B, 0.18 nM. Moreover, the efflux ratio at 120 min, 10 μM at P-glycoprotein (P-gp) was 2.06.

Consider `O=C1CCc2cc([C@H](O)CN3C[C@H]4C[C@H](Oc5ccccc5)C[C@@]4(O)C3)cc(F)c2N1` (single isomer, unassigned) [Example 31B], for which the IC50 on hERG (setting [1]) worked out at 3.9 µM; on NR2B it was 4.8 nM.

With `O=C1Nc2c(F)cc([C@H](O)CN3C[C@H]4C[C@H](Oc5ccccc5)C[C@@]4(O)C3)cc2CO1` (single isomer, unassigned) [Example 33B], the IC50 at hERG (setting [1]) was 4.9 µM; on NR2B, 3.6 nM. In addition, the efflux ratio at 120 min, 10 μM on P-glycoprotein (P-gp) was determined as 0.91.

With `O=C1Nc2c(F)cc([C@@H](O)CN3C[C@H]4C[C@H](Oc5ccccc5)C[C@@]4(O)C3)cc2CO1` (single isomer, unassigned) [Example 33A], the figures for the IC50 against hERG (setting [1]) and at NR2B were 8.2 µM and 4.9 nM, respectively. Moreover, the efflux ratio at 120 min, 10 μM on P-glycoprotein (P-gp) is 1.87.

In the case of `O=c1[nH]c2ccc([C@H](O)CN3C[C@H]4C[C@H](Oc5ccccc5F)C[C@@]4(O)C3)cc2s1` (single isomer, unassigned) [Example 18B], the IC50 against hERG (setting [1]) amounted to 1.2 µM; on NR2B, 0.012 nM.

Consider `O=C1CCc2cc(C(O)CN3C[C@H]4C[C@H](Oc5ccccc5F)C[C@@]4(O)C3)ccc2N1` (single isomer, unassigned) [Example 5D], for which the IC50 at hERG (setting [1]) was 5.9 µM; against hERG (Table 3, matched pairs) it was 5.9 µM; on NR2B, 0.61 nM. In addition, at P-glycoprotein (P-gp) (efflux ratio, 10 μM, 120 min), the “MDCK-MDR1 ER” value is 1.93. Besides, the “relative potency in the NR2B rat cortical neuron calcium influx assay” value on NR2B is “more potent than Examples 5A and 5B”.

Take `O=c1[nH]c2ccc([C@@H](O)CN3C[C@H]4C[C@H](Oc5ccccc5)C[C@@]4(O)C3)cc2s1` (single isomer, unassigned) [Example 17A]: the figures for the IC50 against hERG (setting [1]) and at NR2B were 0.2 µM and 0.013 nM, respectively. Besides, at P-glycoprotein (P-gp), the efflux ratio at 120 min, 10 μM worked out at 1.11.

For the molecule `O=C1Nc2ccc([C@@H](O)CN3C[C@H]4C[C@H](Oc5ccccc5)C[C@@]4(O)C3)cc2CO1` (single isomer, unassigned) [Example 28A], the results for the IC50 on hERG (setting [1]) and at NR2B were 2.4 µM and 0.83 nM, respectively. Also, the efflux ratio at 120 min, 10 μM on P-glycoprotein (P-gp) was 3.32.

With `O=C1CCc2cc([C@H](O)CN3C[C@H]4C[C@H](Oc5ccccc5F)[C@H](O)[C@@]4(O)C3)cc(F)c2N1` (single isomer, unassigned) [Example 29B], the IC50 was determined as 12.5 µM against hERG (setting [1]) and 11 nM on NR2B. For the same molecule, the efflux ratio at 120 min, 10 μM on P-glycoprotein (P-gp) amounted to 4.24.

For the molecule `O=c1[nH]c2c(F)cc([C@@H](O)CN3C[C@H]4C[C@H](Oc5ccccc5)C[C@@]4(O)C3)cc2s1` (single isomer, unassigned) [Example 42A], the concentration for half-maximal inhibition (IC50) against hERG (setting [1]) came to 2.2 µM; on NR2B it was 0.19 nM. Moreover, the efflux ratio at 120 min, 10 μM on P-glycoprotein (P-gp) stood at 0.93.

Regarding `O=C1CCc2cc([C@@H](O)CN3C[C@H]4C[C@H](Oc5ccccc5)C[C@@]4(O)C3)c(F)cc2N1` (single isomer, unassigned) [Example 10A], the IC50 on hERG (setting [1]) was determined as 2.1 µM; on NR2B, 0.41 nM. The efflux ratio at 120 min, 10 μM on P-glycoprotein (P-gp) came to 1.11.

Consider `O=C1CCc2cc(C(O)CN3CC4CC(Oc5ccccc5F)CC4(O)C3)ccc2N1` (stereo in doubt) [Example 5C, 6-((R)-2-((3aR,5R,6aS)-5-(2-fluorophenoxy)-3a-hydroxyhexahydrocyclopenta[c]pyrrol-2(1H)-yl)-1-hydroxyethyl)-3,4-dihydroquinolin-2(1H)-one], for which the IC50 against hERG (setting [1]) was 6 µM; on hERG (Table 3, matched pairs), 6 µM; on NR2B, 0.59 nM. Further, the efflux ratio at 120 min, 10 μM on P-glycoprotein (P-gp) was 2.07. Moreover, the “relative potency in the NR2B rat cortical neuron calcium influx assay” value on NR2B was “more potent than Examples 5A and 5B”.

As for `O=C1CCc2cc([C@H](O)CN3C[C@H]4C[C@H](Oc5ccccc5)C[C@@]4(O)C3)ccc2N1` [Example 1B, 6-((S)-1-hydroxy-2-((3aS,5S,6aR)-3a-hydroxy-5-phenoxyhexahydrocyclopenta[c]pyrrol-2(1H)-yl)ethyl)-3,4-dihydroquinolin-2(1H)-one], the values for the IC50 against hERG (setting [1]) and on NR2B were 7.6 µM and 1.6 nM, respectively. Besides, the efflux ratio at 120 min, 10 μM on P-glycoprotein (P-gp) is 2.3.

The molecule `O=C1CCc2cc(C(O)CN3C[C@H]4C[C@H](Oc5ccccc5F)C[C@H]4C3)ccc2N1` (mixture of isomers) [Mixture of two isomers at benzylic position, reference compound] registered an IC50 against hERG (Table 3, matched pairs) of 0.5 µM.

On to `O=C1Cc2cc([C@@H](O)CN3C[C@H]4C[C@H](Oc5ccccc5)C[C@@]4(O)C3)ccc2N1` (single isomer, unassigned) [Example 2A], for which the efflux ratio at 120 min, 10 μM at P-glycoprotein (P-gp) came to 3.3. Also, at NR2B, the IC50 is 100 nM.
